# Assay results: PMC9780108, “An intrinsically disordered antimicrobial peptide dendrimer from stereorandomized virtual screening” (Cell Reports. Physical Science, 2022)
# Read-outs that look alike come from different tables or passages of the source. Residues, ends and D or L forms follow the SMILES beside them.
# Legend:
# P. aeruginosa PAO1 [1] = assay: DiSC3(5) inner membrane depolarization assay; type: cell-based, Pseudomonas aeruginosa; details: PAO1 in HEPES buffer pH 7.4, 2 μM DiSC3(5), up to 64 μg/mL, read within 5 min
# Description: page 29: 11. DiSC3(5) Membrane Depolarization Assay A single colony of Pseudomonas aeruginosa PAO1 was grown overnight with shaking (150 rpm) in LB-broth (5 mL) at 37 °C. 100 μL of the overnight culture was regrown in 10 mL LB- broth with shaking (200 rpm) to the exponential phase OD 600 = 1 (10^9 CFU/mL). Bacteria were washed once with HEPES buffer (5 mM HEPES, 5 mM glucose, pH 7.4) and diluted to OD 600 = 0.4. Stock solution of 10 mM of DiSC3(5) was prepared in DMSO. Stock solutions of 1 mg/mL of the compounds were prepared in sterilized milli-Q water and diluted to the beginning concentration of 128 μg/mL in 200 μL HEPES buffer containing […] the fluorescent probe DiSC3(5) 4 μM. The diluted samples were added to the first well of 96-well plates (black wells, flat bottom, BRAND® GmbH Wertheim, Germany) and diluted serially by 1/2. 100 μL of the bacterial suspension in HEPES buffer (without DiSC3(5)) were added to each well. In this case, the final OD of bacteria was 0.2, the final concentration of peptide in the first column is 64 μg/mL and DiSC3(5) 2 μM. The control wells are buffer containing DiSC3(5) and bacterial suspension containing DiSC3(5) in HEPES buffer. The plate was measured with a Tecan instrument Infinite M1000 within 5 min. The plate was enabled to shake for 5 sec before measurement. […]
# HEK293 cell line = type: cell-based
# Method in brief: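 HEK293 cells seeded at 2 × 10³/well, incubated 48 h at 37 °C with serially diluted compounds (stock 2 mg/mL) in DMEM with 10% FBS. AlamarBlue added at 10% final for 3–5 h; fluorescence ex 560/em 590 nm, normalized to untreated cells.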
# P. aeruginosa PAO1 [2] = assay: PI cell permeabilization assay (flow cytometry); type: cell-based, Pseudomonas aeruginosa; details: PAO1 (OD600 = 1) incubated 20 min at 37°C, PI 5 µg/mL
# Description: page 31: 12. Cell Membrane Permeability Assay Propidium iodide (PI) was used as the fluorescent dye to evaluate integrity of bacterial membranes. A single colony of Pseudomonas aeruginosa PAO1 was grown overnight with shaking (150 rpm) in LB-broth (5 mL) at 37 °C. 100 μL of the overnight culture was regrown in 10 mL LB-broth to the exponential phase OD600 1 (10^9 CFU/mL). Bacteria was washed with MH and then re-suspended to a working concentration of OD600 = 1. AMPDs and polymyxin B (stock solution 1 mg/mL) were added at different final concentrations ( 16, 32 and 64 μg/mL). Samples were incubated with shaking (150 rpm) at 37°C for 20 minutes before samples were centrifuged at 14 000 rpm for 3 min. Bacteria sample was washed twice with PBS and stained with PI 5 µg/mL in PBS with shaking (150 rpm) at 37°C for 20 minutes. Bacteria sample was washed 5 times with PBS and the fluorescence intensity of bacteria suspensions was observed and recorded on a ImageStream ® X Mark II Imaging Flow Cytometer with a 488 nm laser , bacteria cells wi th fluorescent intensity higher than 2 × 104 is defined as PI positive cells. Percentage of PI positive cells was calculated by IDEA S workstation . S30
# P. aeruginosa PAO1 [3] = tested on: P. aeruginosa PAO1
# human red blood cells = assay: Hemolysis assay (MHC); details: Table 1; human red blood cells in PBS (pH 7.4), 4 h, visual inspection; two independent experiments in duplicate
# [4] = tested on: S aureus COL (methicillin-resistant Staphylococcus aureus)
# [5] = MH medium pH 7.4, 16–20 h at 37°C, two independent experiments in duplicate
# [6] = Table 1, broth microdilution, Müller-Hinton medium pH 7.4, 16–20 h at 37°C, two independent experiments in duplicate
# [7] = broth microdilution, Müller-Hinton medium pH 5.0, 16–20 h at 37°C, two independent experiments in duplicate
# [8] = broth microdilution, Müller-Hinton medium pH 8.0, 16–20 h at 37°C, two independent experiments in duplicate
compound,measurement,setting,value
"polymyxin B [PMB, reference compound]","MIC, P. aeruginosa ZEM9A","P. aeruginosa ZEM9A; clinical isolate, MH medium pH 7.4, 16–20 h at 37°C, two independent experiments in duplicate",64 µg/mL
same,"MIC, P. aeruginosa ZEM-1A","P. aeruginosa ZEM-1A; MDR clinical isolate, MH medium pH 7.4, 16–20 h at 37°C, two independent experiments in duplicate",0.5 µg/mL
same,"MIC, S. maltophilia",S. maltophilia; [5],4 µg/mL
same,"MIC, S. aureus Newman",S. aureus Newman; [5],>64 µg/mL
same,"Inner membrane depolarization (DiSC3(5) fluorescence), words",P. aeruginosa PAO1 [1],did not depolarize the inner membrane
same,IC50 HEK293,"HEK293 cell line; HEK293 cell line, 48 h at 37°C, DMEM 10% FBS, AlamarBlue, mean ± SD, three independent experiments in triplicates",346 ± 20 µg/mL
same,"Cell permeabilization (PI), percentage of PI-positive cells",P. aeruginosa PAO1 [2]; 16 μg/mL,96%
same,"Cell permeabilization (PI), percentage of PI-positive cells",P. aeruginosa PAO1 [2]; 32 μg/mL,94%
same,"Cell permeabilization (PI), percentage of PI-positive cells",P. aeruginosa PAO1 [2]; 64 μg/mL,96%
same,"MIC at pH 7.4, P. aeruginosa PAO1",P. aeruginosa PAO1 [3]; [6],0.5 μg/mL
same,"MIC at pH 5.0, P. aeruginosa PAO1",P. aeruginosa PAO1 [3]; [7],0.03 μg/mL
same,"MIC at pH 8.0, P. aeruginosa PAO1",P. aeruginosa PAO1 [3]; [8],0.5 μg/mL
same,"MIC, B. cenocepacia",B. cenocepacia; [5],>64 µg/mL
same,"MIC, K. pneumoniae OXA-48","K. pneumoniae OXA-48; carbapenem-resistant strain, MH medium pH 7.4, 16–20 h at 37°C, two independent experiments in duplicate",1 µg/mL
same,"MIC at pH 7.4, K. pneumoniae NCTC 418",K. pneumoniae NCTC 418; [6],0.25 μg/mL
same,"MIC at pH 5.0, K. pneumoniae NCTC 418",K. pneumoniae NCTC 418; [7],8 μg/mL
same,"MIC at pH 8.0, K. pneumoniae NCTC 418",K. pneumoniae NCTC 418; [8],0.25 μg/mL
same,"MIC, E. cloacae",E. cloacae; [5],0.5 µg/mL
same,"MIC at pH 7.4, E. coli W3110",E. coli W3110; [6],0.25 μg/mL
same,"MIC at pH 5.0, E. coli W3110",E. coli W3110; [7],0.02 μg/mL
same,"MIC at pH 8.0, E. coli W3110",E. coli W3110; [8],0.13 μg/mL
same,"MIC, P. aeruginosa PA14",P. aeruginosa PA14; [5],0.5 µg/mL
same,MHC (minimum hemolytic concentration),human red blood cells,">2,000 μg/mL"
same,"MIC at pH 5.0, S aureus COL",[4]; [7],> 64 μg/mL
same,"MIC at pH 7.4, S aureus COL","[4]; broth microdilution, Müller-Hinton medium pH 7.4, 16–20 h at 37°C, two independent experiments in duplicate",> 64 μg/mL
same,"MIC at pH 8.0, S aureus COL",[4]; [8],4 μg/mL
same,"MIC at pH 7.4, A. baumannii ATCC 19606",A. baumannii ATCC 19606; [6],0.25 μg/mL
same,"MIC at pH 5.0, A. baumannii ATCC 19606",A. baumannii ATCC 19606; [7],1 μg/mL
same,"MIC at pH 8.0, A. baumannii ATCC 19606",A. baumannii ATCC 19606; [8],0.25 μg/mL
PMB nonapeptide [PMBN],"Inner membrane depolarization (DiSC3(5) fluorescence), words",P. aeruginosa PAO1 [1],no effect on inner membranes
same,"Cell permeabilization (PI), percentage of PI-positive cells",P. aeruginosa PAO1 [2]; 16 μg/mL,40%
same,"Cell permeabilization (PI), percentage of PI-positive cells",P. aeruginosa PAO1 [2]; 32 μg/mL,38%
same,"Cell permeabilization (PI), percentage of PI-positive cells",P. aeruginosa PAO1 [2]; 64 μg/mL,37%
"CC(C)C[C@H](NC(=O)[C@H](CCCCN)NC(=O)[C@H](CCCCN)NC(=O)[C@H](CCCCNC(=O)[C@H](CC(C)C)NC(=O)[C@H](CC(C)C)NC(=O)[C@H](CCCCN)NC(=O)[C@H](CCCCNC(=O)[C@H](CC(C)C)NC(=O)[C@H](CCCCN)NC(=O)[C@H](CCCCNC(=O)[C@H](CC(C)C)NC(=O)[C@@H](N)CCCCN)NC(=O)[C@H](CC(C)C)NC(=O)[C@@H](N)CCCCN)NC(=O)[C@H](CC(C)C)NC(=O)[C@H](CCCCN)NC(=O)[C@H](CCCCNC(=O)[C@H](CC(C)C)NC(=O)[C@@H](N)CCCCN)NC(=O)[C@H](CC(C)C)NC(=O)[C@@H](N)CCCCN)NC(=O)[C@H](CC(C)C)NC(=O)[C@H](CC(C)C)NC(=O)[C@H](CCCCN)NC(=O)[C@H](CCCCNC(=O)[C@H](CC(C)C)NC(=O)[C@H](CCCCN)NC(=O)[C@H](CCCCNC(=O)[C@H](CC(C)C)NC(=O)[C@@H](N)CCCCN)NC(=O)[C@H](CC(C)C)NC(=O)[C@@H](N)CCCCN)NC(=O)[C@H](CC(C)C)NC(=O)[C@H](CCCCN)NC(=O)[C@H](CCCCNC(=O)[C@H](CC(C)C)NC(=O)[C@@H](N)CCCCN)NC(=O)[C@H](CC(C)C)NC(=O)[C@@H](N)CCCCN)C(N)=O [L-T7, reference compound] (HELM PEPTIDE1{K.L.K.K.L.K.K.L.L.K.K.K.L.[am]}|PEPTIDE2{K.L}|PEPTIDE3{K.L.K.K.L.K.K.L.L}|PEPTIDE4{K.L}|PEPTIDE5{K.L.K.K.L}|PEPTIDE6{K.L}|PEPTIDE7{K.L.K.K.L}|PEPTIDE8{K.L}$PEPTIDE1,PEPTIDE2,3:R3-2:R2|PEPTIDE3,PEPTIDE4,3:R3-2:R2|PEPTIDE5,PEPTIDE6,3:R3-2:R2|PEPTIDE7,PEPTIDE8,3:R3-2:R2|PEPTIDE1,PEPTIDE7,6:R3-5:R2|PEPTIDE1,PEPTIDE3,10:R3-9:R2|PEPTIDE3,PEPTIDE5,6:R3-5:R2$$$V2.0)","MIC, P. aeruginosa ZEM9A","P. aeruginosa ZEM9A; ZEM9A, pH 7.4",8 µg/mL
same,"MIC, P. aeruginosa ZEM-1A","P. aeruginosa ZEM-1A; ZEM-1A, pH 7.4",4 µg/mL
same,"MIC, S. maltophilia",S. maltophilia; pH 7.4,4 µg/mL
same,"MIC, S. aureus Newman","S. aureus Newman; Newman, pH 7.4",>64 µg/mL
same,IC50 HEK293,HEK293 cell line; 48 h,70 ± 6 µg/mL
same,"MIC at pH 5.0, P. aeruginosa PAO1","P. aeruginosa PAO1 [3]; PAO1, pH 5",16 μg/mL
same,"MIC at pH 7.4, P. aeruginosa PAO1","P. aeruginosa PAO1 [3]; PAO1, pH 7.4",8 μg/mL
same,"MIC at pH 8.0, P. aeruginosa PAO1","P. aeruginosa PAO1 [3]; PAO1, pH 8",2–4 μg/mL
same,"MIC, B. cenocepacia",B. cenocepacia; pH 7.4,>64 µg/mL
same,"MIC, K. pneumoniae OXA-48","K. pneumoniae OXA-48; OXA-48, pH 7.4",16 µg/mL
same,"MIC at pH 5.0, K. pneumoniae NCTC 418","K. pneumoniae NCTC 418; NCTC 418, pH 5",> 64 μg/mL
same,"MIC at pH 7.4, K. pneumoniae NCTC 418","K. pneumoniae NCTC 418; NCTC 418, pH 7.4",32 μg/mL
same,"MIC at pH 8.0, K. pneumoniae NCTC 418","K. pneumoniae NCTC 418; NCTC 418, pH 8",8 μg/mL
same,"MIC, E. cloacae",E. cloacae; pH 7.4,8 µg/mL
same,"MIC at pH 5.0, E. coli W3110","E. coli W3110; W3110, pH 5",16 μg/mL
same,"MIC at pH 7.4, E. coli W3110","E. coli W3110; W3110, pH 7.4",4 μg/mL
same,"MIC at pH 8.0, E. coli W3110","E. coli W3110; W3110, pH 8",2 μg/mL
same,"MIC, P. aeruginosa PA14","P. aeruginosa PA14; PA14, pH 7.4",8 µg/mL
same,"MIC at pH 5.0, S aureus COL","[4]; COL (methicillin-resistant, pH 5)",> 64 μg/mL
same,"MIC at pH 7.4, S aureus COL","[4]; COL (methicillin-resistant, pH 7.4)",> 64 μg/mL
same,"MIC at pH 8.0, S aureus COL","[4]; COL (methicillin-resistant, pH 8)",4 μg/mL
same,"MIC at pH 5.0, A. baumannii ATCC 19606","A. baumannii ATCC 19606; ATCC 19606, pH 5",16 μg/mL
same,"MIC at pH 7.4, A. baumannii ATCC 19606","A. baumannii ATCC 19606; ATCC 19606, pH 7.4",8 μg/mL
same,"MIC at pH 8.0, A. baumannii ATCC 19606","A. baumannii ATCC 19606; ATCC 19606, pH 8",2–4 μg/mL
